The values that follow are results of earlier work, collected in patent publication US20100216719A1, “Soluble Fiber Combinations for Weight Control and Improving Parameters of Cardiovascular Health” (MANNATECH, INCORPORATED, priority 2005, published 2010).

For series [1] the following is noted: test animals.
The conditions of series [2]: subjects supplemented with 3.8 grams per day for 28 days.

Turning to guar gum, the effect on cholesterol result in series [1] was “decreased only cholesterol”.

On to xanthan gum, for which, in series [1], the effect on cholesterol entry is on record as “significantly reduced” and the effect on triglycerides result is “significantly reduced”.

As to Konjac glucomannan, in series [2], the “reduction in ApoB” value is 12.9%, the “reduction in LDL cholesterol” value is recorded as 20.7%, the “reduction in fasting glucose levels” value is on record as 23.2% and the “reduction in plasma cholesterol” value is 11.1%. Further, the “reduction in total cholesterol/HDL cholesterol ratio” value in series [2] was 15.6%.
